Experimental data taken from patent US5061695A, “Antitumor substance BE-12406” (Banyu Pharmaceutical Co., Ltd., priority 1989, dated 1991).

Legend:
[1] = test system: human colon cancer cell line LS180; assay: Cancer cell growth inhibition, LS180 (sulforhodamine B); type: cell-based; conditions: LS180, 72 hours, 37° C.; for IC50: Homo sapiens
Experimental: (§1) For the assessment of the inhibitory activity of BE-12406A, B, X1 and X2 against human cancer cells, in vitro tests were carried out. As the test cells, human colon cancer cell lines DLD-1 and LS180 and human lung cancer cell line PC13 were used. The cell culture medium was 10% fetal calf serum-RPMI medium for DLD-1 and LS180, and 10% fetal calf serum-RPMI-1640 medium for PC13. First, each of BE-12406A, B, X1 and X2 was dissolved in dimethyl sulfoxide and the solution was serially diluted with PBS (phosphate-buffered saline) to prepare test solutions. The cancer cell growth inhibition assay was performed as follows. Thus, 100 μl of a cell culture medium containing 3×10^3 cancer cells was distributed into a 96-well microtiter plate and incubated under 5% CO2 at 37° C. for 24 hours. Then, 11 μl of the above test solutions were added and the incubation was further carried out under 5% CO2 at 37° C. for an additional 72 hours. The cells were then fixed with 50% trichloroacetic acid and stained with 0.4% sulforhodamine B. From the stained cells, the dye was extracted with 10 mM Tris solution and the absorbance at 540 nm was measured and compared with the control.

[2] = Solubility; type: physicochemical; conditions: for Solubility in organic solvents: dimethyl sulfoxide and other organic solvents
[3] = Acute toxicity in mice, single intraperitoneal dosing; type: in vivo, mouse (ICR; conditions: 100 mg/kg, ICR female mice
[4] = test system: P388/S tumor cells; assay: In vitro growth inhibition of P388/S tumor cells (Coulter counter); type: cell-based; conditions: Mus musculus, 72 hours, 37° C., read-out: IC50, concentration causing 50% inhibition of P388/S cell growth
Experimental: (§2) In vitro activity tests were performed for evaluating the inhibitory activities of the antitumor substances BE-12406A and B against mouse tumor cells. In the in vitro antitumor assay using P388 tumor cells, the antitumor substance BE-12406A or B was first dissolved in dimethyl sulfoxide and the solution was serially diluted with a cell culture medium containing 20% of dimethyl sulfoxide (20% DMSO-RPMI-1640 medium). Then, 2 μl of each dilution was added to 200 μl of a cell culture medium (10% fetal calf serum-RPMI-1640 medium) containing 2.5×10^4 tumor cells and the mixture was incubated under 5% CO2 at 37° C. for 72 hours. The viable cells were then counted with a Coulter counter. The result was compared with the control data. […] The corresponding values for P388/V cells were 0.2 and 7 μM, respectively.
(§3) The P388/S tumor cell line is one of the common mouse leukemia cell lines, and the P388/V line is a strain of P388 leukemia cell which has acquired resistance to the anticancer agent vincristine.

[5] = test system: HeLa cells; assay: In vitro growth inhibition of HeLa cells (Crystal Violet); type: cell-based, human; conditions: 72 hours, 37° C.; for IC50: Homo sapiens, HeLa, read-out: IC50, 50% inhibitory concentration, HeLa
Experimental: (§4) Then, the in vitro inhibitory activity of BE-12406A and B was assayed using HeLa cells, which are human cancer cells, and L1210 cells which are mouse leukemia cells.
Thus, antitumor substance BE-12406A or B in a concentration series was added to 200 μl of a cell culture medium (10% fetal calf serum-MEM medium) containing 4×10^3 HeLa cells and the mixture was incubated under 5% CO2 at 37° C. for 72 hours. The surviving adherent cells were fixed with 10% formalin and stained with 0.01% Crystal Violet. Using a 1:1 (v/v) mixture of ethylene glycol and ethanol, the dye was extracted from the stained cells and the absorbance at 590 nm was measured and compared with the control.

[6] = test system: P388 tumor cells; assay: In vitro growth inhibition of P388 tumor cells (overall statement); type: cell-based, mouse; conditions: 72 hours, 37° C.
Experimental: as §2

[7] = test system: S-180 ascites tumor; assay: Antitumor effect on transplanted mouse S-180 ascites tumor (survival); type: in vivo; conditions: i.p.; for MST (mean survival time): days 1, 4, 7, 9 and 13, female ICR mice; for MST (% T/C), (treated MST/control MST) × 100: ≥ 125 = marked antitumor effect
Experimental: In this assay using mice, 10^6 (lethal dose) S-180 tumor cells pre mouse were intrapetitoneally administered and the 5% DMSO-PBS (phosphate Buffered Saline solution of BE-12406A in a dilution series (1:2, 1:4, 1:8, etc.) was intraperitoneally administered. The results are summarized in Table 3.
^1 Inoculum: 10^6 ascites tumor cells, intraperitoneal
^2 Host: Female ICR mice
^3 Treatment schedule: BE12406A was administered intraperitoneally on
^4 MST: Mean survival time (in days)
^5 % T/C: (treated MST/control MST) × 100
^6 Criteria: When % T/C ≥ 125, the test compound was considere
to produce a marked antitumor effect at the particular concentration.

[8] = test system: P388/V cells; assay: In vitro growth inhibition of P388/V cells (vincristine-resistant); type: cell-based; conditions: Mus musculus, 72 hours, 37° C., read-out: IC50, 50% inhibition of P388/V cell growth
Experimental: as §2, §3

[9] = test system: human lung cancer cell line PC13; assay: Cancer cell growth inhibition, PC13 (sulforhodamine B); type: cell-based; conditions: PC-13, PC13, 72 hours, 37° C.
Experimental: as §1

[10] = test system: human colon cancer cell line DLD-1; assay: Cancer cell growth inhibition, DLD-1 (sulforhodamine B); type: cell-based; conditions: DLD-1, 72 hours, 37° C.
Experimental: as §1

[11] = test system: L1210 cells; assay: In vitro growth inhibition of L1210 cells (Coulter counter); type: cell-based, mouse; conditions: 37° C.; for growth inhibition of L1210 cells (in words): 72 hours; for IC50: Mus musculus, L1210, 72 hours, read-out: IC50, 50% inhibitory concentration, L1210
Experimental: as §4
The growth inhibition assay using L1210 cells was performed as follows. Thus, antitumor substance BE-12406A or B in a concentration series was added to 200 μl of a cell culture medium (10% fetal calf serum-RPMI-1640) containing 4.5×10^3 L1210 cells and the mixture was incubated under 5% CO2 at 37° C. for 72 hours. The surviving suspended cells were counted with a Coulter counter and the result was compared with the control.

[12] = test system: P388/A cells; assay: In vitro growth inhibition of P388/A cells (adriamycin-resistant); type: cell-based, mouse; conditions: for IC50: Mus musculus, P388/A (adriamycin-resistant), read-out: IC50, 50% inhibitory concentration, P388/A; for inhibition of P388/A cells (in words): adriamycin-resistant
Experimental: as §2

[13] = test system: human cancer cells; assay: In vitro growth inhibition of human cancer cells DLD-1, LS180 and PC13 (overall statement); type: cell-based; conditions: DLD-1, LS180, PC13; 72 hours, 37° C.
Experimental: as §1

Row | IC50 [1] | Solubility in water [2] | IC50 [9] | IC50 [10] | Solubility in organic solvents ([2]; dimethylformamide) | Compound | inhibition of proliferation of LS180 (in words) [1] | Solubility in organic solvents ([2]; tetrahydrofuran) | IC50 [4] | growth inhibition of HeLa cells (in words) [5] | IC50 [5] | growth inhibition of P388 tumor cells (in words) [6] | IC50 [8] | growth inhibition of L1210 cells (in words) [11] | IC50 [11] | IC50 [12] | inhibition of P388/A cells (in words) [12] | growth inhibition of human cancer cells (in words) [13] | also measured
1 | 88.1 µM | Sparingly soluble | 161 µM | > 220 µM |  | Cc1cc(O)c2c(c1)c(=O)oc1c3cccc(O)c3c(OC3OC(C)C(O)C(O)C3O)cc12 (centres unmarked) [BE-12406B] |  | readily soluble | 7 µM | inhibited growth | 20 µM | markedly inhibit the growth | 7 µM | inhibited growth | 60 µM | 11 µM | inhibited | inhibit the growth | 
2 | 36.3 µM | Sparingly soluble | 115 µM | 91.9 µM | soluble | COc1cc(C)cc2c(=O)oc3c4cccc(OC5OC(C)C(O)C(O)C5O)c4c(O)cc3c12 (centres unmarked) [BE-12406X1] | markedly inhibited proliferation |  |  |  |  |  |  |  |  |  |  | inhibit the growth | 
3 | 311 µM | Sparingly soluble | > 311 µM | > 311 µM | soluble | COc1cc(C)cc2c(=O)oc3c4cccc(O)c4c(O)cc3c12 [BE-12406X2] |  |  |  |  |  |  |  |  |  |  |  | inhibit the growth | 

Row | Compound | IC50 [1] | Solubility in water [2] | IC50 [9] | IC50 [10] | Solubility in organic solvents ([2]; dimethylformamide) | inhibition of proliferation of LS180 (in words) [1] | Solubility in organic solvents ([2]; tetrahydrofuran) | IC50 [4] | growth inhibition of HeLa cells (in words) [5] | IC50 [5] | growth inhibition of P388 tumor cells (in words) [6] | IC50 [8] | growth inhibition of L1210 cells (in words) [11] | IC50 [11] | IC50 [12] | inhibition of P388/A cells (in words) [12] | growth inhibition of human cancer cells (in words) [13] | also measured
4 | COc1cc(C)cc2c(=O)oc3c4cccc(O)c4c(OC4OC(C)C(O)C(O)C4O)cc3c12 (centres unmarked) [BE-12406A] | 12 µM | Sparingly soluble | 20.7 µM | 18.4 µM |  | markedly inhibited proliferation | readily soluble | 0.8 µM | inhibited growth | 11 µM | markedly inhibit the growth | 0.2 µM | inhibited growth | 9.6 µM | 0.9 µM | inhibited | inhibit the growth | acute toxicity, death on day 5 [3]: no death was found; MST (mean survival time) ([7]; 2.5 mg/kg/injection): 12.0 days; MST (% T/C), (treated MST/control MST) × 100 ([7]; 2.5 mg/kg/injection): 120 % T/C; MST (mean survival time) ([7]; 5 mg/kg/injection): 13.0 days; MST (% T/C), (treated MST/control MST) × 100 ([7]; 5 mg/kg/injection): 130 % T/C; MST (mean survival time) ([7]; 10 mg/kg/injection): 15.0 days; MST (% T/C), (treated MST/control MST) × 100 ([7]; 10 mg/kg/injection): 150 % T/C; MST (mean survival time) ([7]; 20 mg/kg/injection): > 30.0 days; MST (% T/C), (treated MST/control MST) × 100 ([7]; 20 mg/kg/injection): > 300 % T/C; MST (mean survival time) ([7]; 40 mg/kg/injection): > 30.0 days; MST (% T/C), (treated MST/control MST) × 100 ([7]; 40 mg/kg/injection): > 300 % T/C; antitumor effect on transplanted S-180 tumor cells (in words) ([7]; mice): showed an antitumor effect
